Measured values as given in ChEMBL document CHEMBL1201862, “PubChem BioAssay data set” (2004).
Active and inactive are the calls of the source.

Key:
Streptococcus = experiment: GAS UMAA2166 growth inhibition – luminescence, BacTiterGlo, counter-screen for streptokinase expression inhibitor project, dose response (AID 1915); format: functional, organism-based;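 further: potency for reduction of bacterial viability or growth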
[1] = test system: Streptococcus sp. 'group A'; experiment: Streptococcus pyogenes SK(-)GAS viability under kanamycin – luminescence, BacTiterGlo, confirmation, counter-screen for streptokinase expression inhibitor project, dose response (AID 1900); format: functional, organism-based
[2] = HGIII-sPLA2 enzyme inhibition potency – biochemical, QFRET, IC50, dose response (AID 743457);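 further: green fluorescence rise as the enzyme cleaves BODIPY PC-A2 in liposomes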
[3] = viability loss in HepG2 hepatoma cells – cell-based, ATP luminescence, cherry-pick, activator set 2, cytotoxicity control, dose response (AID 1053143); format: functional
[4] = general mammalian cell viability loss – activator set, cherry-pick, cytotoxicity control for miR-122 modulator project, dose response (AID 720690); format: functional, cell-based;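 further: HEK293T human cells scored for general mammalian cytotoxicity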
[5] = viability of HCT116 lacking mutant beta-catenin – cell-based, human colon tumor, dose response (AID 1045); format: functional;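 further: HCT116 colon tumor cells with beta catenin knocked out; cells exposed to compound for 60 hours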
[6] = NIH3T3 cell viability loss – ATP luminescence, mouse fibroblasts, counter-screen, dose response (AID 2010); format: functional, cell-based;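 further: cells exposed to compound for about 90 hours before reading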
[7] = Trypanosoma cruzi growth suppression in host cells – NIH3T3 host cells, beta-gal luminescence, confirmation (AID 2044); format: functional, cell-based;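 further: intracellular parasites grown in NIH/3T3 mouse fibroblasts as host cells; luminescent beta-galactosidase reporter signal from transgenic T. cruzi replicating inside host cells; inhibitors lower the luminescence signal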
[8] = non-specific 3'UTR reporter inhibition in Clone20-Shn3RL – cell-based, Renilla luciferase, cherry-picked, counter-screen for Shn3 inhibitor project, dose response (AID 624133); format: functional
HEK293 [9] = experiment: NOD2 signaling inhibitors in MDP-stimulated cells, cell-based, uHTS, luminescence (AID 2001); format: functional; details: Homo sapiens
[10] = general mammalian cell viability loss – inhibitor set, cherry-pick, set 2, cytotoxicity control for miR-122 modulator project, dose response (AID 720697); format: functional, cell-based
[11] = Luminescence Cell-Based Dose Response HTS to Identify Inhibitors of 5'UTR Stem-Loop Driven Prion Protein mRNA Translation in H4 Neuroglioblastoma Cells. [Related pubchem assays: 1827 (Project Summary), 1813 (Primary HTS)]; format: functional
[12] = off-target signal loss in HeLa-CEM21 co-culture – HeLa F-luc CTL cells, cherry-picked, counter-screen for HIV-1 Env fusion inhibitor project, dose response (AID 652040); format: functional, cell-based;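 further: potency for signal decrease marking cytotoxic or nonspecific inhibition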
HEK293 [13] = experiment: cells; format: functional, cell-based; details: Homo sapiens
[14] = luciferase reporter signal suppression in cells – H4 neuroglioma cells, luminescence, dose response (AID 1990); format: functional, cell-based
[15] = molecular target: Photoreceptor-specific nuclear receptor (Homo sapiens, UniProt Q9Y5X4); format: functional, cell-based;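 further: CHO-S cells with Gal4-NCOR and VP16-NR2E3 two-hybrid luciferase reporter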
Chain of Photoreceptor-specific nuclear receptor (Q9Y5X4 whole entry, the tested form may be a part): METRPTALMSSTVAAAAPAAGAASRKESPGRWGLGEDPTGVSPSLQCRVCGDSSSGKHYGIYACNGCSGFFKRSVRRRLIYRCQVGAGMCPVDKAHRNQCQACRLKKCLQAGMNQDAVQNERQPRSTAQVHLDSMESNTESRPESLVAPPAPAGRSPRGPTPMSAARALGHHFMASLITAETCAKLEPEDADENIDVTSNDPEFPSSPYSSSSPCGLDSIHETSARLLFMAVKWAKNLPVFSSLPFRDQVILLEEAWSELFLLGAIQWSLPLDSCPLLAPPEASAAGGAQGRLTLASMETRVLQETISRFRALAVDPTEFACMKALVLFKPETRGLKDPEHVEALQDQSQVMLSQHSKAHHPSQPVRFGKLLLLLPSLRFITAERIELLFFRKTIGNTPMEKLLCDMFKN

[16] = reduction of Shn3 3'UTR-driven luciferase in osteoblasts – cell-based, Clone20 osteoblasts, firefly luciferase, cherry-picked, dose response (AID 624132); format: functional;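 further: firefly luciferase luminescence from reporter carrying the Shn3 3'UTR in osteoblasts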
[17] = Luminescence Cell-Based Dose Retest to Confirm Inhibitors of Cancer Stem Cells. [Related pubchem assays (depositor defined):AID2717, AID2721]; format: functional; details: Homo sapiens
[18] = blockers of HIV-1 envelope-mediated cell-cell fusion – cherry-pick, dose response (AID 652057); format: functional, cell-based
HEK293 [19] = experiment: inhibition of NOD1-driven NF-kB reporter – cell-based, luminescence, uHTS, primary screen (AID 1578); format: functional; details: Homo sapiens
[20] = loss of viability in HepG2 cells – cell-based, CellTiter-Glo, cherry-picked, cytotoxicity control for Shn3 inhibitor project, dose response (AID 624134); format: functional
[21] = viability of PTEN-deleted HCT116 cells – cell-based, HCT116 PTEN knockout, dose response (AID 1047); format: functional;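 further: HCT116 colon tumor cells with PTEN knocked out; cells exposed to compound for 60 hours before readout; potency for loss of cell viability measured by luminescence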
[22] = alpha-synuclein stem-loop luciferase translation blockers – H4 neuroglioma cells, luminescence, confirmation (AID 1988); format: functional, cell-based
HEK293 [23] = experiment: cells; format: functional, cell-based; details: Homo sapiens; remark: listed apart in the source
[24] = viability loss in CEM21 cells – cell-based, CellTiter-Glo luminescence, cherry-picked, cytotoxicity control for viral fusion inhibitor project, dose response (AID 652042); format: functional;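 further: potency for signal decrease meaning cytotoxicity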
INS1 = experiment: INS-1E survival protection against cytokine death – cell-based, luminescence, retest, dose response (AID 449756); format: functional; details: Rattus norvegicus;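 further: cell death triggered by IL-1 beta plus TNF-alpha plus IFN-gamma mixture; protective hits raise ATP signal compared with cytokine alone wells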

O=C(Cc1ccccc1)NNC(=S)NC(=O)c1cccs1
EC50 (Streptococcus): 7.51 µM (active) | EC50 [1]: 3.33 µM (active) | IC50 [2]: > 122 µM (inactive)

Cc1noc(C)c1C(=O)Nc1nc2ccc(F)cc2s1
AC50 [3]: > 52 µM (inactive)

CC(=O)c1ccc(Nc2nc3ccc(C)cc3n3cnnc23)cc1
AC50 [4]: 0.551 µM (active)

CCn1c(S)nnc1-c1csc(C(C)C)c1
IC50 [2]: > 122 µM (inactive)

CCN(CC)S(=O)(=O)c1ccc(NC(=O)Nc2cccc(C(F)(F)F)c2)cc1
EC50 [5]: 6.35 µM (active) | EC50 [6]: > 60 µM (not active) | EC50 [7]: 1.67 µM (active) | AC50 [8]: 10.8 µM (active) | IC50 (HEK293 [9]): 4.48 µM (inactive) | AC50 [10]: 9.71 µM (active) | EC50 [11]: 14.9 µM (active) | AC50 [12]: 10.3 µM (active) | IC50 (HEK293 [13]): 8.73 µM (active) | EC50 [14]: > 120 µM (not active) | IC50 [15]: 6.94 µM (active) | AC50 [16]: 5.6 µM (active) | AC50 [17]: 2.13 µM (active) | AC50 [18]: 9.67 µM (active) | AC50 [4]: 5.75 µM (active) | EC50 (HEK293 [19]): > 20 µM (inactive) | AC50 [20]: 27.6 µM (active) | EC50 [21]: 4.56 µM (active) | EC50 [22]: 11.1 µM (active) | IC50 (HEK293 [23]): 3.14 µM (active) | AC50 [24]: 13.6 µM (active) | AC50 (INS1): 4.6 µM (active)
